Laboratory results from patent US20160367464A1, “METHOD AND COMPOSITION FOR IMPROVING SKIN CONDITIONS COMPRISING HUMAN PLACENTAL LACTOGEN AS AN ACTIVE INGREDIENT” (Regeron, Inc., priority 2012, published 2016).
Where “and” joins values, the source holds several entries; their conditions need not be identical. Identical values can stand only once.

Tests used:
Type in all cases: in vivo, mouse
[1] = system: Nc/Nga mice with long term atopic dermatitis; test: Skin damage score, long term TNCB-induced atopic dermatitis
Method: (§1) Four weeks old male Nc/Nga mice were purchased from Orientbio Inc. (Korea) and bred at 24±2° C. and 50±10% relative humidity under 12 hours light/dark cycles. Animals were subject to 1-week acclimating period prior to the experiments.
The dorsal area of Nc/Nga mice was shaved, which was sensitized by applying 5% TNCB 150 µl. Then 1% TNCB solution made in olive oil was applied to the sensitized area for total 22 times over the period of 13 weeks.
(§2) Lipo-hPL (20 μg/ml) was topically applied 5 times per week for 6 weeks (short term) and 13 weeks (long term).
(§3) The skin damage was classified to 4 types as described in the Table 8. Based on the pictures taken every week for the inflamed dorsal area, the severity of the damage was evaluated and scored based on the 4 levels as shown below.

serum IgE = test: Serum IgE measurement (ELISA) in Nc/Nga mice with atopic dermatitis; settings: TNCB-treated Nc/Nga mice, short term topical application (FIG. 13), Lipo-hPL 20 μg/ml
Text: Atopic individuals can have up to 10 times the normal level of IgE in their blood, even though this may not be a requirement for symptoms to occur as has been seen in asthmatics with normal IgE levels in their blood—recent research has shown that IgE production can occur locally in the nasal mucosa (Takhar P et al. (2005) J Immunol 174 (8): 5024-32). After the completion of the Lipo-hPL treatment for the induced inflammation, blood was drawn from the great saphenons vein and the serum was obtained by centrifugation. The serum IgE was measured using the IgE ELISA kit (GomaBiotech, Korea).

[2] = system: Nc/Nga mice with atopic dermatitis; test: Skin thickness measurement on H&E stained slides, Nc/Nga mice with atopic dermatitis
Text: Upon the completion of all necessary treatments, affected areas of the dorsal skin was severed and fixed in 4% formaldehyde and set into a block using paraffin. The paraffin block was cut into 10 um thin slices using microtome, which were set on glass slides followed by stained with hematoxylin and eosin (H&E) before subject to the microscopic observation.
The tissue slides stained with H&E were photographed in order to measure the skin thickness ranging from exoderm, fat layer to the muscle layer using the appropriate software provided for the microscope utilized for the measurement of skin thickness.

[3] = system: Nc/Nga mice with short term atopic dermatitis; test: Skin damage score, short term TNCB-induced atopic dermatitis; settings: short term (6 weeks); for Overall damage: sum of erythema, edema, erosion, dryness divided by number of animals (3)
Method: as §1
First, the dorsal area of Nc/Nga mice was shaved, which was sensitized by applying 5% TNCB 150 µl. Then 1% TNCB solution made in olive oil was applied to the sensitized area once every week for 6 weeks.
as §2, §3

[4] = system: UVB-irradiated SKH-1 female nude mice; test: Wrinkle improving effects in UVB-irradiated SKH-1 hairless nude mice (Donald method); set-up: key: —: No wrinkle formation; *: Slightly deep and thick wrinkle; **: Slightly to moderately deep and thick wrinkle; ***: Moderately deep and thick wrinkle; ****: Moderately to severely deep and thick wrinkle; *****: Severely deep and thick wrinkle; settings: SKH-1 nude mice, U.V. irradiation Yes, 0.1% retinoic acid in 15% EtOH
Method: The 4-week-old SKH-1 female nude mice were purchased from Douyul Biotech, Sungnam, Korea). The animal breeding chambers were kept at 24±0.2° C. and relative humidity at 50±10% in a 12-hr light/12-hr dark cycle. The animals were permitted free access to solid feed (Central Lab. Animal Inc., Seoul, Korea) and water sterilized by irradiation and acclimated for about 2 weeks before divided them into 7 groups by random selection.
In order to induce wrinkle formation on the backside of the nude mice, UVB was irradiated to the mice three times a week for 11 weeks using the VLX-3W stimulator (Vilber Lourmat, Marne la Vallee, France) in the protocol: 30 mJ/cm^2 for the weeks 1 and 2, 40 mJ/cm^2 for the weeks 3 and 4, 50 mJ/cm^2 for the weeks 5 through 9, and 60 mJ/cm^2 for the weeks 10 and 11. […]
The wrinkle-improving effect was evaluated according to the Donald method (Hyun-Seok Kim et. al, Mech. Ageing Dev. 126:1255-61, 2005). […] In the present invention, the effects of Lipo-hPL and other skin-conditioning agents on wrinkle formation were evaluated by observing changes of the thickness and depth of wrinkles before and after treatments.

[5] = long term (13 weeks), scores summed over 2 animals, Lipo-hPL 20 μg/ml topical 5 times per week
[6] = score 0-3 per animal summed over 3 animals, Lipo-hPL 20 μg/ml topical 5 times per week

SMILES	Dryness [1, 5]	Edema [1, 5]	Erosion [1, 5]	Erythema [1, 5]	Overall damage ([1]; long term (13 weeks), sum of erythema, edema, erosion, dryness divided by number of animals (2))	Long term skin damages score ([1]; long term, out of 10 as the most severe damage)	IgE (serum IgE) [ng/mL]	Exodermal thickness of animals treated with TNCB only relative to treated animals [2]	Average skin thickness (epidermis, dermis and subcutaneous layer) ([2]; TNCB-treated Nc/Nga mice, long term topical application (FIG. 16)) [μm]	Dryness [3, 6]	Edema [3, 6]	Erosion [3, 6]	Erythema [3, 6]	Overall damage [3]	Overall damage ([3]; listed as FK506)	Changes in wrinkle depth and thickness ([4]; Appendix Table 5, topical 11 weeks, 20 μg/ml Lipo-hPL, 4.1 μg/ml Lipo-his-hPL)	Changes in wrinkle depth and thickness ([4]; topical 5 times a week for 11 weeks, 20 µg/ml Lipo-hPL, 4 µg/ml Lipo-his-hPL)
C=CC[C@@H]1/C=C(\C)C[C@H](C)C[C@H](OC)[C@H]2O[C@@](O)(C(=O)C(=O)N3CCCC[C@H]3C(=O)O[C@H](/C(C)=C/[C@@H]3CC[C@@H](O)[C@H](OC)C3)[C@H](C)[C@@H](O)CC1=O)[C@H](C)C[C@@H]2OC [Tacrolimua (FK506), Tacrolimua]	3	1.5	3.5	1.5	4.75 and 4.8	2.4±0.7	107.1	approximately 10 folds	408.0±23.4	3	0	3	3	3.0	3.0±0.3		
CC1=C(/C=C/C(C)=C/C=C/C(C)=C/C(=O)O)C(C)(C)CCC1 [Retinoic acid, retinoic acid]																**	**
